The source made the active and inactive calls. For most assays here, no stated cut-off is given here; in the data, actives have a measured Kd and inactives only a lower limit.
Tests used:
[1] = biological target: Tyrosine-protein kinase Lyn (Homo sapiens, UniProt P07948)
[2] = biological target: Protein kinase C alpha type (Homo sapiens, UniProt P17252)
[3] = biological target: Mitogen-activated protein kinase kinase kinase 20 (Homo sapiens, UniProt Q9NYL2)
[4] = biological target: T1, Breakpoint cluster region protein (Homo sapiens, UniProt P11274)
T1 sequence (P11274 whole entry): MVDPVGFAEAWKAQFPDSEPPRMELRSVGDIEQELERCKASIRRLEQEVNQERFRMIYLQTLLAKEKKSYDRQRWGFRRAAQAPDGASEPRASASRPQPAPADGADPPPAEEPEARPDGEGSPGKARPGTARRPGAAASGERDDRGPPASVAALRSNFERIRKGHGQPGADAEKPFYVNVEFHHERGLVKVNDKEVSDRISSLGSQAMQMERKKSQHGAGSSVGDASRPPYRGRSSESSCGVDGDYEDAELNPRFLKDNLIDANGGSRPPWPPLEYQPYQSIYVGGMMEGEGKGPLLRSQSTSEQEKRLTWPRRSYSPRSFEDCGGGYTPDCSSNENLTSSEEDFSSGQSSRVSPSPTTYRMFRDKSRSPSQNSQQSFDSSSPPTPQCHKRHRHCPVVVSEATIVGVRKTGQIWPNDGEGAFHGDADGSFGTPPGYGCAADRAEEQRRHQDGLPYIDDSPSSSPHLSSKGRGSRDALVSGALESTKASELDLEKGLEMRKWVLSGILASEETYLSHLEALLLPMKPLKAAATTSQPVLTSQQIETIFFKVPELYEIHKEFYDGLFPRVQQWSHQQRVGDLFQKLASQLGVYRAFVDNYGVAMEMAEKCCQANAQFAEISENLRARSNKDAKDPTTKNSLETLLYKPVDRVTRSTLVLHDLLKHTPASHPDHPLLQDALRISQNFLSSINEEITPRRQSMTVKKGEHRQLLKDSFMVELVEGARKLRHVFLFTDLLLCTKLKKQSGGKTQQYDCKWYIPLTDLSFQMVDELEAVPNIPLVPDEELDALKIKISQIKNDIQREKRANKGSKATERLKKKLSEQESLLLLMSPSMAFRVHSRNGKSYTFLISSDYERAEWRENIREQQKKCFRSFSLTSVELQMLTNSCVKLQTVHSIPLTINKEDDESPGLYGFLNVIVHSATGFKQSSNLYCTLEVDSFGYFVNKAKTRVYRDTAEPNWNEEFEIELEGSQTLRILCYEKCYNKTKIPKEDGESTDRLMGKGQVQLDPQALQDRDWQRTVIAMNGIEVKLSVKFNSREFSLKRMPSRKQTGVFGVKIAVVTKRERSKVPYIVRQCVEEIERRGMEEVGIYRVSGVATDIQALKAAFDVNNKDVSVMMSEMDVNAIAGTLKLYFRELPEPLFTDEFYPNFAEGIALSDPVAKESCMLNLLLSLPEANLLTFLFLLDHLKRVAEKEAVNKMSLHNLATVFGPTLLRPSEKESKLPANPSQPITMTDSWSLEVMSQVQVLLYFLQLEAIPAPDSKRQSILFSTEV

[5] = biological target: T2, Ras-related protein Rab-10 (Homo sapiens, UniProt P61026)
T2 sequence (P61026 whole entry): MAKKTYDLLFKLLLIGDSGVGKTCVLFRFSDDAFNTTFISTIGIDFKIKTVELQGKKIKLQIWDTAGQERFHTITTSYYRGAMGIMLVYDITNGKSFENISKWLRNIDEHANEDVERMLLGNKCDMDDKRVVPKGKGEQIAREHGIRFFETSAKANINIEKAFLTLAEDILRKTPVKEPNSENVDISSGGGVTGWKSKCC

[6] = biological target: T3, Long-chain-fatty-acid--CoA ligase 5 (Homo sapiens, UniProt Q9ULC5)
T3 sequence (Q9ULC5 whole entry): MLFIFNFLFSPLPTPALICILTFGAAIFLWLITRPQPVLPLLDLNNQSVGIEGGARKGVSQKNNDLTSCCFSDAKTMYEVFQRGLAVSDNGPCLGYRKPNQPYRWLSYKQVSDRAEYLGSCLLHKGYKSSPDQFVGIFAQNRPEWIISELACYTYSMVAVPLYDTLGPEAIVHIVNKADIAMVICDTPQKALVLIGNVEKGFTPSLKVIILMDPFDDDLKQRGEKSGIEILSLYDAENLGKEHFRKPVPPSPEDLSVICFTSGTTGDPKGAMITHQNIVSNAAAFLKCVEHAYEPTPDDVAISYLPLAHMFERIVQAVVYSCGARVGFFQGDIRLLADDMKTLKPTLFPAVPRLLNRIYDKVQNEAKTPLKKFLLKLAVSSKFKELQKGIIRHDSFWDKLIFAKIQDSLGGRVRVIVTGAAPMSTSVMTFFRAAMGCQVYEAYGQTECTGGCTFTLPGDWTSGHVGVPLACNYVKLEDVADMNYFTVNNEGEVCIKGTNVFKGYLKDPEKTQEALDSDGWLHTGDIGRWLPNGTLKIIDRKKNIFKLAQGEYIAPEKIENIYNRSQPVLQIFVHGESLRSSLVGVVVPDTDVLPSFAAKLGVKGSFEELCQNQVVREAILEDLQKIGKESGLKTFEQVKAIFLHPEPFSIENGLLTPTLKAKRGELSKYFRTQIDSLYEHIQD

[7] = biological target: cAMP-dependent protein kinase catalytic subunit gamma (Homo sapiens, UniProt P22612)
cAMP-dependent protein kinase catalytic subunit gamma, sequence (P22612 whole entry): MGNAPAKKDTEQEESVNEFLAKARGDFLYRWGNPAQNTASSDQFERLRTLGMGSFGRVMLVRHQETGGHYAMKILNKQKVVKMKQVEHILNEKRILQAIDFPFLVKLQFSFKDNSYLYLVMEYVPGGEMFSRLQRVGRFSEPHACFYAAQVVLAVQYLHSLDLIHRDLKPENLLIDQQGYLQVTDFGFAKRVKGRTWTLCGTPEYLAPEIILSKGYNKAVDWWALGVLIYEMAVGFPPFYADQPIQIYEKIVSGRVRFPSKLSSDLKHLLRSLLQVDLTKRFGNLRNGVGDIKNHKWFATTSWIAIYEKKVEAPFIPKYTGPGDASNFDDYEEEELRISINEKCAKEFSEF

Mitogen-activated protein kinase kinase kinase 20, sequence (Q9NYL2 whole entry): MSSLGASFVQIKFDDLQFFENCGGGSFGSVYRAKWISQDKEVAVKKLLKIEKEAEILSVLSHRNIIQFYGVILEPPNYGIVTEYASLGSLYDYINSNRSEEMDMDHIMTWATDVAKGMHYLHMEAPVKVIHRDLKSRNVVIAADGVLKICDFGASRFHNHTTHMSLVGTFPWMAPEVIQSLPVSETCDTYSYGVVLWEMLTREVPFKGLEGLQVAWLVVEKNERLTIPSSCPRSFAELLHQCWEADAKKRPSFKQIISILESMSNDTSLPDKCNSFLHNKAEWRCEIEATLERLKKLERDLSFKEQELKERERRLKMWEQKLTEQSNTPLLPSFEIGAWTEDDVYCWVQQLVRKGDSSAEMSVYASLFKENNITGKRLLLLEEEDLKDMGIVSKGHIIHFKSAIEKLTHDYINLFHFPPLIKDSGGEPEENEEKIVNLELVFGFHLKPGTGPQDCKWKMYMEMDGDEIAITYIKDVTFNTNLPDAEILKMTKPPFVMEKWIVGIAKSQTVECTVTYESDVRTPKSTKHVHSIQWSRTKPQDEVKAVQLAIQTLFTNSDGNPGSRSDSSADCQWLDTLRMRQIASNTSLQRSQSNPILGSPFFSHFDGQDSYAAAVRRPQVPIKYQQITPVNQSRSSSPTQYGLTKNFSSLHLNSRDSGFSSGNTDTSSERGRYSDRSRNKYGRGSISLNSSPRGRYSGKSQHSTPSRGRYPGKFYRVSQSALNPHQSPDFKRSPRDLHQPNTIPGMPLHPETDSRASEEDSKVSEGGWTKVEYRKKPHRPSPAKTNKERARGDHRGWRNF
Tyrosine-protein kinase Lyn, sequence (P07948 whole entry): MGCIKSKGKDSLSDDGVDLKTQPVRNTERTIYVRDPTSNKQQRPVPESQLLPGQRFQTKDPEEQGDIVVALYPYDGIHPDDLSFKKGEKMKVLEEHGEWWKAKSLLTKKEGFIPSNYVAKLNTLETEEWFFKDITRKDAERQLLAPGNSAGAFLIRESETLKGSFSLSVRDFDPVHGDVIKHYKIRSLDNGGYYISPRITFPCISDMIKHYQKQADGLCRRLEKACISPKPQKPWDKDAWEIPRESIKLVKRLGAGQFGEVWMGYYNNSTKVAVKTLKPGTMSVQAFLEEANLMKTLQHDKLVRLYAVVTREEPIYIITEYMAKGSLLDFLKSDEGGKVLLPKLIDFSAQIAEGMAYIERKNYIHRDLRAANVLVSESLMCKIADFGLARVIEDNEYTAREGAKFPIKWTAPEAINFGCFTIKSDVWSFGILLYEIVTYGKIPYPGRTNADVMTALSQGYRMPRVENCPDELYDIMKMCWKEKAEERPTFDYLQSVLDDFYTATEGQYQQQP

Structure (SMILES)	Kd [1]	Kd [2]	Kd [3]	Kd [4]	Kd [5]	Kd [6]	Kd [7]
Cn1c(=O)c(F)c(Nc2ccc(I)cc2F)c2c(=O)n(C[C@@H](O)CO)cnc21 [TAK-733]	> 30 µM (inactive)	> 30 µM (inactive)	> 30 µM (inactive)	> 30 µM (inactive)	> 30 µM (inactive)	–	–
COc1cc2ncnc(Nc3ccc(F)c(Cl)c3)c2cc1NC(=O)/C=C/CN1CCCCC1 [DACOMITINIB ANHYDROUS]	> 30 µM (inactive)	> 30 µM (inactive)	> 30 µM (inactive)	> 30 µM (inactive)	–	> 30 µM (inactive)	–
C#Cc1cccc(Nc2ncnc3cc4c(cc23)OCCOCCOCCO4)c1 [ICOTINIB]	> 30 µM (inactive)	> 30 µM (inactive)	> 30 µM (inactive)	> 30 µM (inactive)	> 30 µM (inactive)	> 30 µM (inactive)	–
C[C@]1(O)C[C@@H](c2nc(-c3ccc4ccc(-c5ccccc5)nc4c3)c3c(N)nccn32)C1 [LINSITINIB]	–	–	–	> 30 µM (inactive)	> 30 µM (inactive)	–	> 30 µM (inactive)
O=C(O)c1ccc2c(c1)nc(Nc1cccc(Cl)c1)c1ccncc12 [SILMITASERTIB]	> 30 µM (inactive)	> 30 µM (inactive)	> 30 µM (inactive)	> 30 µM (inactive)	> 30 µM (inactive)	–	> 30 µM (inactive)
S=C(NCc1ccc2c(c1)OCO2)N1CCN(c2ncnc3c2oc2ccccc23)CC1 [AMUVATINIB]	> 30 µM (inactive)	> 30 µM (inactive)	> 30 µM (inactive)	> 30 µM (inactive)	> 30 µM (inactive)	> 30 µM (inactive)	–
Cn1cnc2c(F)c(Nc3ccc(Br)cc3Cl)c(C(=O)NOCCO)cc21 [SELUMETINIB]	–	> 30 µM (inactive)	–	> 30 µM (inactive)	> 30 µM (inactive)	> 30 µM (inactive)	–
O=S(=O)(c1cccc2cnccc12)N1CCCNCC1 [FASUDIL]	> 30 µM (inactive)	> 30 µM (inactive)	> 30 µM (inactive)	> 30 µM (inactive)	> 30 µM (inactive)	> 30 µM (inactive)	–
COc1cc2c(Oc3ccc4[nH]c(C)cc4c3F)ncnc2cc1OCCCN1CCCC1 [CEDIRANIB]	–	> 30 µM (inactive)	–	2.31 µM (active)	> 30 µM (inactive)	0.008 µM	–
Cc1ccc(C(=O)Nc2ccc(Oc3cc4cnn(C)c4cc3-c3cn[nH]c3)c(F)c2)c(=O)n1-c1ccc(F)cc1 [MERESTINIB]	> 30 µM (inactive)	> 30 µM (inactive)	> 30 µM (inactive)	> 30 µM (inactive)	> 30 µM (inactive)	–	–
CNC(=O)c1cccc(-c2ccc3c(N4CCOC[C@@H]4C)nc(N4CCOC[C@@H]4C)nc3n2)c1 [VISTUSERTIB]	> 30 µM (inactive)	> 30 µM (inactive)	> 30 µM (inactive)	> 30 µM (inactive)	> 30 µM (inactive)	> 30 µM (inactive)	–
C=CC(=O)Nc1cc(Nc2nccc(-c3cn(C)c4ccccc34)n2)c(OC)cc1N(C)CCN(C)C [OSIMERTINIB]	> 30 µM (inactive)	> 30 µM (inactive)	> 30 µM (inactive)	> 30 µM (inactive)	> 30 µM (inactive)	–	> 30 µM (inactive)
CC(C)CC(=O)Nc1[nH]nc2c1CN(C(=O)C1CCN(C)CC1)C2(C)C [PHA-793887]	> 30 µM (inactive)	> 30 µM (inactive)	> 30 µM (inactive)	> 30 µM (inactive)	> 30 µM (inactive)	–	> 30 µM (inactive)
CC1(C)CNc2cc(NC(=O)c3cccnc3NCc3ccncc3)ccc21 [MOTESANIB]	–	> 30 µM (inactive)	–	> 30 µM (inactive)	> 30 µM (inactive)	> 30 µM (inactive)	–
O=c1[nH]c([C@@H]2CCCN2)nc2c1oc1ccc(Cl)cc12	> 30 µM (inactive)	> 30 µM (inactive)	> 30 µM (inactive)	> 30 µM (inactive)	> 30 µM (inactive)	–	–
C[C@@]1(C(=O)Nc2ccc(F)nc2)CCCN1c1nc(Nc2cc(C3CC3)n[nH]2)c2cccn2n1 [BMS-754807]	–	> 30 µM (inactive)	–	> 30 µM (inactive)	> 30 µM (inactive)	–	> 30 µM (inactive)
CCN1CCN(Cc2ccc(Nc3ncc(F)c(-c4cc(F)c5nc(C)n(C(C)C)c5c4)n3)nc2)CC1 [ABEMACICLIB]	> 30 µM (inactive)	0.53 µM (active)	> 30 µM (inactive)	> 30 µM (inactive)	> 30 µM (inactive)	–	> 30 µM (inactive)
C=CC(=O)Nc1cccc(Nc2nc(Nc3ccc(N4CCN(C(C)=O)CC4)cc3OC)ncc2C(F)(F)F)c1 [ROCILETINIB]	> 30 µM (inactive)	> 30 µM (inactive)	> 30 µM (inactive)	> 30 µM (inactive)	> 30 µM (inactive)	–	> 30 µM (inactive)
O=C(NOC[C@H](O)CO)c1ccc(F)c(F)c1Nc1ccc(I)cc1F [MIRDAMETINIB]	> 30 µM (inactive)	> 30 µM (inactive)	> 30 µM (inactive)	> 30 µM (inactive)	> 30 µM (inactive)	–	> 30 µM (inactive)
O=C(Nc1ccc(OC(F)(F)F)cc1)c1sccc1NCc1ccnc2ccccc12 [OSI-930]	> 30 µM (inactive)	> 30 µM (inactive)	7.73 µM (active)	> 30 µM (inactive)	> 30 µM (inactive)	> 30 µM (inactive)	–
C=CCN(/C=C1/C(=O)O[C@H](COC)[C@@]2(C)C1=C(O)C(=O)C1=C2[C@H](OC(C)=O)C[C@]2(C)C(=O)CC[C@@H]12)CC=C [SONOLISIB]	> 30 µM (inactive)	> 30 µM (inactive)	> 30 µM (inactive)	> 30 µM (inactive)	> 30 µM (inactive)	–	0.007 µM
N#CCNC(=O)c1ccc(-c2ccnc(Nc3ccc(N4CCOCC4)cc3)n2)cc1 [MOMELOTINIB]	–	> 30 µM (inactive)	–	> 30 µM (inactive)	–	> 30 µM (inactive)	–
COc1ccc(-c2ccc3ncc4c(c3c2)n(-c2ccc(N3CCNCC3)c(C(F)(F)F)c2)c(=O)n4C)cn1 [BGT-226 FREE BASE]	> 30 µM (inactive)	> 30 µM (inactive)	> 30 µM (inactive)	> 30 µM (inactive)	> 30 µM (inactive)	–	> 30 µM (inactive)
Cc1cc(Nc2nc(N[C@@H](C)c3ncc(F)cn3)ncc2Cl)n[nH]1 [AZD-1480]	> 30 µM (inactive)	> 30 µM (inactive)	> 30 µM (inactive)	> 30 µM (inactive)	> 30 µM (inactive)	–	> 30 µM (inactive)
CCc1cc2c(cc1N1CCC(N3CCOCC3)CC1)C(C)(C)c1[nH]c3cc(C#N)ccc3c1C2=O [ALECTINIB]	> 30 µM (inactive)	> 30 µM (inactive)	> 30 µM (inactive)	> 30 µM (inactive)	> 30 µM (inactive)	–	> 30 µM (inactive)
